Reference: ChEMBL document CHEMBL4813951 (Eur J Med Chem, 2021)
Activity calls are given as the source filed them. No cut-off for these calls is given here.

How the values were obtained:
[1] = Dissociation constant, pKa of compound in NaOH; assay type: physicochemical; settings: NaOH solution
[2] = Dissociation constant, pKa of compound in aqueous solution in presence of EtOH by spectrometric method; settings: aqueous solution with EtOH
Histamine H1 receptor = Histamine H1 receptor (Homo sapiens, UniProt P35367); assay: Displacement of [3H]mepyramine from human histamine H1 receptor expressed in sf9 insect cell membranes co-expressing RGS4 incubated for 60 mins by microbeta scintillation counting method; design: species or system Membrane
Chain of Histamine H1 receptor (P35367 whole entry): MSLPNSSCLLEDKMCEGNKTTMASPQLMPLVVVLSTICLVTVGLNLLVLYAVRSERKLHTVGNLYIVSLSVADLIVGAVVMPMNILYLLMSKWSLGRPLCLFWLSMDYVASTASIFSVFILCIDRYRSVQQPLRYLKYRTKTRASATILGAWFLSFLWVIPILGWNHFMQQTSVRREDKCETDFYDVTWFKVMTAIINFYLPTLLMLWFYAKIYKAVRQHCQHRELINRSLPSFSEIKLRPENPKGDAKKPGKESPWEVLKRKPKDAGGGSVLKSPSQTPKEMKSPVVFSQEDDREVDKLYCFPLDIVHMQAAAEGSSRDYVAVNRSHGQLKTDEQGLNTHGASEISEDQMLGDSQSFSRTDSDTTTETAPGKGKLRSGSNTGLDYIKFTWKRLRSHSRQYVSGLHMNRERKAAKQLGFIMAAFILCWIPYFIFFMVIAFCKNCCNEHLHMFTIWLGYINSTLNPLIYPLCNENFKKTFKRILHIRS

Histamine H2 receptor [3] = target: T1, Histamine H2 receptor (Homo sapiens, UniProt P25021); assay: Displacement of [3H]UR-DE257 from human histamine H2 receptor expressed in sf9 insect cell membranes co-expressing GSalphaS incubated for 60 mins by microbeta scintillation counting method; design: species or system Membrane
T1 sequence (P25021 whole entry): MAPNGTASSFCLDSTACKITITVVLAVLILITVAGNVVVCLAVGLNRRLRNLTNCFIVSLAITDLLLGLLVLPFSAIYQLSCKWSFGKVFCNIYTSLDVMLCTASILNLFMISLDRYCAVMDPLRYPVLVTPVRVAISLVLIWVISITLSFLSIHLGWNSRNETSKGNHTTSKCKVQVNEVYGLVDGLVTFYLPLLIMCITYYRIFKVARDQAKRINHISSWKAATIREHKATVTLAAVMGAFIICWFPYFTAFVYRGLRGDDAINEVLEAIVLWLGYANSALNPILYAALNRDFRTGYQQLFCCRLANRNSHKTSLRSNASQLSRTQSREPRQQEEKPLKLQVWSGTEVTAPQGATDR

Histamine H3 receptor = Histamine H3 receptor (Homo sapiens, UniProt Q9Y5N1); assay: Displacement of [3H]UR-P129 from human histamine H3 receptor expressed in sf9 insect cell membranes co-expressing Galphai2/Gbeta1gamma2 incubated for 60 mins by microbeta scintillation counting method; design: species or system Membrane
Chain of Histamine H3 receptor (Q9Y5N1 whole entry): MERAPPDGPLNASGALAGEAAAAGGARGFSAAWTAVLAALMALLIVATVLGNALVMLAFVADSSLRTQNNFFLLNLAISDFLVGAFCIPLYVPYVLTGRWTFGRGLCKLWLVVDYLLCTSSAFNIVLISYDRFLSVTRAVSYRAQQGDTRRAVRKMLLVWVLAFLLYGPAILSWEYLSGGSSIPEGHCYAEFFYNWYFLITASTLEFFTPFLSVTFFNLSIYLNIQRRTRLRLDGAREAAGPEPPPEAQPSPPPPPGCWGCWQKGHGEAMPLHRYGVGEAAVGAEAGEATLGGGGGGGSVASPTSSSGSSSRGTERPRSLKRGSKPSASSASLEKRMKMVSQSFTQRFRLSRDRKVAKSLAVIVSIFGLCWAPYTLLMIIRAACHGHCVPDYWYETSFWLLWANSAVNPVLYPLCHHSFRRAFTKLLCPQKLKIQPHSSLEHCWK

Histamine H2 receptor [4] = target: T1, Histamine H2 receptor; assay: Agonist activity at human histamine receptor expressed in sf9 insect cell membranes co-exprssing GsalphaS incubated for 90 mins [35S]GTPgammaS binding based microbeta scintillation counting analysis; assay type: functional, Membrane
Histamine H2 receptor [5] = target: T1, Histamine H2 receptor; assay: Agonist activity at human histamine H2 receptor expressed in HEK293T cells co-expressing ELucC by beta arrestin2 recruitment assay; assay type: functional, cell-based
D(2) dopamine receptor [6] = target: T2, D(2) dopamine receptor (Homo sapiens, UniProt P14416); assay: Displacement of [3H]N-methylspiperone from human D2L receptor expressed in HEK293T cells co-expressing CRE-Luc incubated for 60 mins by microbeta scintillation counting method; assay type: cell-based
T2 sequence (P14416 whole entry): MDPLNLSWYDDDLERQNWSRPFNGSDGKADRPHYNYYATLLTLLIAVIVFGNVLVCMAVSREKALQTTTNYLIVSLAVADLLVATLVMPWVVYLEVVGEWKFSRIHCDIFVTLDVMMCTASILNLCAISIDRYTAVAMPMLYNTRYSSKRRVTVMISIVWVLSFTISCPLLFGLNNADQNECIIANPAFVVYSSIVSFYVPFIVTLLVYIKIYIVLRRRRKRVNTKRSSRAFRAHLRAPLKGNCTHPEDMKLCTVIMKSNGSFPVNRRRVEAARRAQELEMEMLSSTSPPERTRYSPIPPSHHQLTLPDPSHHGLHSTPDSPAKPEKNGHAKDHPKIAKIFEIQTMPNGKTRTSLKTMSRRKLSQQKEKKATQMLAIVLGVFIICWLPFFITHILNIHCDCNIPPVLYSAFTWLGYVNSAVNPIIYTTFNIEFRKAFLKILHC

D(3) dopamine receptor [7] = target: T3, D(3) dopamine receptor (Homo sapiens, UniProt P35462); assay: Displacement of [3H]N-methylspiperone from human D3 receptor expressed in HEK293T cells co-expressing CRE-Luc incubated for 60 mins by microbeta scintillation counting method; assay type: cell-based
T3 sequence (P35462 whole entry): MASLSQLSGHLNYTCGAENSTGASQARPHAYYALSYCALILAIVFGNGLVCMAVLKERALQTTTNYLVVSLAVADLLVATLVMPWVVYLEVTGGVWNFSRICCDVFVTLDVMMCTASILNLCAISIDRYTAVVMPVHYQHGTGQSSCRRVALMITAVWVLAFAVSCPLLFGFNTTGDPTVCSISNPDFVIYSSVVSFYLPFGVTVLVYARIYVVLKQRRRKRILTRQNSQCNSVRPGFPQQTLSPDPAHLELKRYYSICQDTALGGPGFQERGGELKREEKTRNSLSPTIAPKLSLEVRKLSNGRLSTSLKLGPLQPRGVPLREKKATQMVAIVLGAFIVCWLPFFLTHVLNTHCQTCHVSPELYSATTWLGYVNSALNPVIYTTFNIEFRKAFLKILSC

Histamine H2 receptor [8] = target: T1, Histamine H2 receptor; assay: Agonist activity at human histamine H2 receptor expressed in sf9 insect cell membranes co-exprssing GsalphaS assessed as intrinsic activity at >=30 uM incubated for 90 mins [35S]GTPgammaS binding based microbeta scintillation counting analysis relative to histamine; assay type: functional; settings: Membrane, filed as agonist, dose microM >=30, time 90.0 min
Histamine H4 receptor = Histamine H4 receptor (Homo sapiens, UniProt Q9H3N8)
Chain of Histamine H4 receptor (Q9H3N8 whole entry): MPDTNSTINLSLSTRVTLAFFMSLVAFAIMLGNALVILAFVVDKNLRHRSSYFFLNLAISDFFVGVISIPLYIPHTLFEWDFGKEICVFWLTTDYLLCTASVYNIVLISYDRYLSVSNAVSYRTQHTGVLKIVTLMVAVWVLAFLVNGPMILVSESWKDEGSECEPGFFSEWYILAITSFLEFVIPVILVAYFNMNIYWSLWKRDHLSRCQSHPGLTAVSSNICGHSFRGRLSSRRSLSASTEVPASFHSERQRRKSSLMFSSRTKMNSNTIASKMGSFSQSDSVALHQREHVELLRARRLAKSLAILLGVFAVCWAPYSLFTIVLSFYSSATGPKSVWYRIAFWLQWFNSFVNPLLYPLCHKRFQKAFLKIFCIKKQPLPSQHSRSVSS

D(2) dopamine receptor [9] = target: T2, D(2) dopamine receptor; assay type: functional, cell-based, HEK293T
D(3) dopamine receptor [10] = target: T3, D(3) dopamine receptor; assay: Agonist activity at […] expressed in HEK293T cells co-expressing ELucC by beta arrestin2 recruitment assay; assay type: functional, cell-based
[11] = Dissociation constant, pKa1 of compound in HCL or HCL salt; assay type: physicochemical; settings: HCl or HCl salt solution
[12] = Dissociation constant, pKa2 of compound in HCL or HCL salt; assay type: physicochemical; settings: HCl or HCl salt solution
Histamine H2 receptor [13] = target: Histamine H2 receptor (Cavia porcellus, UniProt P47747); assay: (§1) Agonist activity at guinea pig right atrium histamine H2 receptor assessed as increase in heart rate incubated for 30 mins in presence of cimetidine; assay type: functional, tissue-based, Right cardiac atrium
Chain of Histamine H2 receptor (Cavia porcellus, UniProt P47747) (P47747 whole entry): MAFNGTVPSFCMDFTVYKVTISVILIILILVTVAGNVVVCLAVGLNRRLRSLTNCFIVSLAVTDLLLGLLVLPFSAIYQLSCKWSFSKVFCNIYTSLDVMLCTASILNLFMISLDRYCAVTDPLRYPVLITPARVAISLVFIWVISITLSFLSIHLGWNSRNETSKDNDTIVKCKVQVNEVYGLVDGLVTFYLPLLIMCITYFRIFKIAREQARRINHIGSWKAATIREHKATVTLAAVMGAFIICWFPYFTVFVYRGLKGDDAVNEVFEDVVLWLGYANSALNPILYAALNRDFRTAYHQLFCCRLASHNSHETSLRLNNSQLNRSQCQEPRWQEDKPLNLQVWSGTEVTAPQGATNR

[14] = target: Histamine H2 receptor (Cavia porcellus) (UniProt P47747); assay: as §1; assay type: functional, tissue-based; settings: Right cardiac atrium
Chain of Histamine H2 receptor (Cavia porcellus) (P47747 whole entry): as above

Histamine H2 receptor [15] = target: T1, Histamine H2 receptor; settings: Sf9, Membrane, filed as agonist, time 90.0 min
Histamine H2 receptor [16] = target: T1, Histamine H2 receptor; assay: Agonist activity at human histamine H2 receptor expressed in HEK293T cells co-expressing ELucC assessed as intrinsic activity at >= 30 uM by beta arrestin2 recruitment assay relative to histamine; assay type: functional, cell-based; settings: filed as agonist, dose microM >=30
[17] = target: Histamine H2 receptor (Cavia porcellus) (UniProt P47747); assay: Agonist activity at guinea pig right atrium histamine H2 receptor assessed as intrinsic activity incubated for 30 mins in presence of cimetidine relative to histamine; assay type: functional, tissue-based; settings: Right cardiac atrium, filed as agonist
[18] = Dissociation constant, pKa of compound in aqueous solution; assay type: physicochemical
[19] = Dissociation constant, pKa of compound in aqueous solution in presence of HCL; assay type: physicochemical; settings: aqueous solution with HCl

Row | SMILES | Ki (Histamine H1 receptor) [µM] | Ki (Histamine H2 receptor [3]) [µM] | Ki (Histamine H3 receptor) [µM] | EC50 (Histamine H2 receptor [4]) [µM] | EC50 (Histamine H2 receptor [5]) [µM] | Ki (D(2) dopamine receptor [6]) [µM] | Ki (D(3) dopamine receptor [7]) [µM] | Intrinsic activity (Histamine H2 receptor [8]) | Ki (Histamine H4 receptor) [µM] | EC50 (D(2) dopamine receptor [9]) [µM] | EC50 (D(3) dopamine receptor [10]) [µM] | other results
1 | Cc1nc(N)sc1C |  |  |  |  |  |  |  |  |  |  |  | pKa [1]: 6.28; pKa [2]: 6.29
2 | N/C(=N\C(=O)NCc1ccccc1)NC1CCc2nc(N)sc2C1 (stereo unspecified) | 1.2 | 0.513 | 3.31 | 0.214 | 4.37 | 0.55 | 5.01 | 0.53 | 30.2 |  |  | 
3 | Cc1nc(N)sc1CCCN/C(N)=N/C(=O)NCc1ccccc1 | 6.17 | 0.0692 | 19.5 | 0.0288 | 0.1 | 0.603 | 0.0457 | 0.91 | 19.1 | 1.66 | 0.0339 | 
4 | Cc1nc(N)sc1CCCN/C(N)=N/C(=O)N[C@H](C)c1ccccc1 | 8.71 | 0.0178 | 43.7 |  | 0.0457 |  | 0.00617 |  | 13.5 |  | 0.0155 | pKa [11]: 4.68; pKa [12]: 7.47; EC50 (Histamine H2 receptor [13]): 0.00759 µM
5 | Cc1nc(N)sc1CCCN/C(N)=N/C(=S)NCC(c1ccccc1)c1ccccc1 | 44.7 | 1.45 | 46.8 |  |  |  |  |  | 21.4 |  |  | pEC50 [14]: inactive
6 | CCCCCCNC(=O)/N=C(\N)Nc1cccc(-c2csc(N)n2)c1 |  | 0.692 | 11 |  |  | 2.51 | 1.29 |  | 9.55 |  |  | pKb (Histamine H2 receptor [15]): 6.14
7 | Cc1nc(N)sc1CCCN/C(N)=N/C(=O)NCC(C)c1ccc(C(C)C)cc1 (stereo unspecified) | 4.9 | 0.148 | 7.94 | 0.0347 | 0.282 |  |  | 0.59 | 2.63 |  |  | Intrinsic activity (Histamine H2 receptor [16]): 0.25
8 | Cc1nc(N)sc1CCCN/C(N)=N/C(=S)N[C@H](C)c1ccccc1 | 110 | 0.115 | 64.6 |  | 0.372 | 1.17 | 0.0603 |  | 26.9 | 1.51 | 0.166 | EC50 (Histamine H2 receptor [13]): 0.0891 µM; Intrinsic activity [17]: 0.87
9 | Cc1nc(N)sc1CCCN/C(N)=N/C(=O)NCC(c1ccccc1)C(C)C (stereo unspecified) | 5.89 | 0.102 | 11.7 | 0.0309 | 0.158 |  |  | 0.52 | 5.89 |  |  | Intrinsic activity (Histamine H2 receptor [16]): 0.11
10 | Cc1nc(N)sc1CCCN/C(N)=N/C(=O)NCC(C)CC1CCCCC1 (stereo unspecified) | 3.8 | 0.0708 | 7.41 | 0.0174 | 0.302 |  | 0.132 |  | 3.72 |  | 0.302 | 
11 | Cc1nc(N)sc1CCCN/C(N)=N/C(=O)NC(C)c1ccco1 (stereo unspecified) | 45.7 | 0.0316 | 43.7 |  | 0.234 | 1.7 | 0.0174 |  | 45.7 | 1.07 | 0.102 | EC50 (Histamine H2 receptor [13]): 0.00977 µM; Intrinsic activity [17]: 1
12 | CCCNC(=O)/N=C(\N)NCC |  |  |  |  |  |  |  |  |  |  |  | pKa [1]: 8.31
13 | CCCNC(=O)/N=C(\N)Nc1cccc(-c2csc(N)n2)c1 |  | 5.25 |  |  |  |  |  |  | > 100 |  |  | pKb (Histamine H2 receptor [15]): 4.91
14 | C[C@@H](NC(=O)/N=C(\N)NCCCc1ccccc1)c1ccccc1 |  |  |  |  |  |  |  |  |  |  |  | pKa [1]: 7.96
15 | Cc1nc(N)sc1CCCN/C(N)=N/C(=O)NCC(C)CCc1ccccc1 (stereo unspecified) | 1.35 | 0.0631 | 9.12 | 0.0295 | 0.355 | 0.355 | 0.0457 | 0.69 | 3.24 | 5.37 | 0.891 | Intrinsic activity (Histamine H2 receptor [16]): 0.2
16 | Cc1csc(N)n1 |  |  |  |  |  |  |  |  |  |  |  | pKa [1]: 5.77; pKa [18]: 5.95; pKa [19]: 4.64
17 | CCCCCCNC(=O)/N=C(\N)NCCCc1sc(N)nc1C | 7.76 | 0.0288 | 5.62 | 0.0389 | 0.0851 | 0.562 | 0.0141 | 0.6 | 8.13 | 1.74 | 0.0234 | EC50 (Histamine H2 receptor [13]): 0.0158 µM; Intrinsic activity [17]: 0.95
18 | CCCCCNC(=O)/N=C(\N)NCCCc1sc(N)nc1C | 10.7 | 0.00447 | 10.5 |  | 0.178 | 0.447 |  |  | 4.27 | 1.05 |  | EC50 (Histamine H2 receptor [13]): 0.00575 µM
19 | Cc1nc(N)sc1CCCN/C(N)=N/C(=O)NCC(C)C1CCCCC1 (stereo unspecified) | 2.34 | 0.0398 | 10 | 0.0219 | 0.224 | 0.263 | 0.0437 | 0.65 | 1.91 | 3.24 | 0.263 | Intrinsic activity (Histamine H2 receptor [16]): 0.4
20 | N/C(=N\C(=O)NC1CCCCC1)Nc1cccc(-c2csc(N)n2)c1 |  | 4.47 |  |  |  |  |  |  | 13.5 |  |  | pKb (Histamine H2 receptor [15]): 5.4
21 | N/C(=N\C(=O)Nc1ccccc1)Nc1cccc(-c2csc(N)n2)c1 |  | 372 |  |  |  |  |  |  | 64.6 |  |  | pKb (Histamine H2 receptor [15]): 4.76
22 | CCCCCCNC(=O)/N=C(\N)NC1CCc2nc(N)sc2C1 (stereo unspecified) | 1.95 | 1.12 | 1.51 | 0.148 |  | 1.26 | 1.26 | 0.16 | 16.6 |  |  | 
